Assay [1] concerns Mycolicibacterium smegmatis. The experiment in a line: Antimicrobial activity against Mycobacterium smegmatis under dormancy-inducing hypoxic condition for 96 hrs by MTT assay. Type of assay: functional.
The test system of assay [2] is Mycolicibacterium smegmatis. The experiment in a line: Antimicrobial activity against Mycobacterium smegmatis under aerobic condition for 36 hrs by MTT assay. Type of assay: functional. On the technique in general: Tetrazolium assays rely on reduction of a dye to a coloured formazan, in cell work by metabolically active cells.

≈ marks a conversion by molar mass, not a printed value.

For orientation: MIC means the lowest concentration that inhibits growth of the organism. Read a high MIC as a less susceptible organism. In the case of `COC(c1ccc(O)cc1)C1NC(=O)[C@H](CCC(N)=O)N(C)C(=O)[C@H](CC(C)C)NC(=O)[C@@H](CCCNC(=N)N)NC(=O)[C@@H]([C@@H](C)O)NC(=O)[C@H](NC(=O)C(NC(=O)[C@H](O)[C@H](O)[C@H](CCCNC(=N)N)NC(=O)[C@@H](CC(N)=O)NC(=O)C(C)C(O)C(C)CC(C)C)C(C)C(C)C(N)=O)[C@@H](C)OC(=O)[C@@H]2CCCCN2C1=O` (some centres not stated) [NEAMPHAMIDE B], the MIC in assay [1] and in assay [2] was 1.56 µg/mL (≈ 0.991 µM) in each case.

These data come from ChEMBL document CHEMBL2046425, “Neamphamide B, new cyclic depsipeptide, as an anti-dormant mycobacterial substance from a Japanese marine sponge of Neamphius sp” (2012).
